Data on 10 compounds can be found in patent US10981926B2 (Janssen Pharmaceutica NV, priority 2016, dated 2021).

The target in experiment [1] is T1, F876L mutant Androgen Receptor (AR-F876L) (Homo sapiens (Human), UniProt P10275, F877L). Nature of the experiment: LNCaP-AR-F876L ANT reporter assay (antagonist mode). Type of experiment: cell-based. The following applies: for IC50: read-out: LNCaP-AR-F876L ANT pIC50 (converted); for Emax: maximum % inhibition of R1881 control response over the tested concentration range, read-out: LNCaP-AR-F876L ANT MAX % Inh.
T1 sequence (P10275 whole entry F877L): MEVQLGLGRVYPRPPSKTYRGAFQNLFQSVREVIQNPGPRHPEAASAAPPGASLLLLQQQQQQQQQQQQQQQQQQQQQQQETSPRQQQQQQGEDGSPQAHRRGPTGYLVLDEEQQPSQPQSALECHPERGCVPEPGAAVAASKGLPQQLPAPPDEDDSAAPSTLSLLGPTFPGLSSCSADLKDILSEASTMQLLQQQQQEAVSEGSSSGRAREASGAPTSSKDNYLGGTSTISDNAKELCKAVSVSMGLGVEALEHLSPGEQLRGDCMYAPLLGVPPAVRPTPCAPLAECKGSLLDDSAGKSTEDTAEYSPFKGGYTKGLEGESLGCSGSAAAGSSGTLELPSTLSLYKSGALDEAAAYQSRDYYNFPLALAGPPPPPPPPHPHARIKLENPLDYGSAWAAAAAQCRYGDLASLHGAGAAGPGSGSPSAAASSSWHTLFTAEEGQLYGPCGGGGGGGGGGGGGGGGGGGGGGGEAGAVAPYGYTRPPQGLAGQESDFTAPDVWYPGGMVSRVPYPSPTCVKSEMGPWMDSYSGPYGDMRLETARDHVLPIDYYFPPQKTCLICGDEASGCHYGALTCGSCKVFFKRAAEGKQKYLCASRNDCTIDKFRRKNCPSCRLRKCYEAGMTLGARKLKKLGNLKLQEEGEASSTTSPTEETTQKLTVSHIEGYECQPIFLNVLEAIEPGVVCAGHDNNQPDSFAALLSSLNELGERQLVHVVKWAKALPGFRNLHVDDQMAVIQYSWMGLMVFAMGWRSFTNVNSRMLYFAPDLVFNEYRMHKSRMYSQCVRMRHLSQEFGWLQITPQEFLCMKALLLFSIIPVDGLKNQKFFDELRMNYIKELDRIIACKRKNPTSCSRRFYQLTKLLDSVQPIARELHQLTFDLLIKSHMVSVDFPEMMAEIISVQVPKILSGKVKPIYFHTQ

Experiment [2] concerns the target T2, wild-type Androgen Receptor (AR-wt) (Homo sapiens (Human), UniProt P10275). Nature of the experiment: LNCaP-AR-wt AG reporter assay (agonist mode). The following applies: for EC50: agonist mode, pEC50 = −Log10(EC50 in Molar), read-out: LNCaP-AR-wt AG pEC50 (converted); for Emax: maximum % stimulation (agonist response) over the tested concentration range, read-out: LNCaP-AR-wt AG MAX % Stim. It is filed as cell-based.

Experiment [3] concerns the target T1, F876L mutant Androgen Receptor (AR-F876L). Nature of the experiment: LNCaP-AR-F876L AG reporter assay (agonist mode). Type of experiment: cell-based. The conditions noted are these: for EC50: agonist mode, pEC50 = −Log10(EC50 in Molar), read-out: LNCaP-AR-F876L AG pEC50 (converted); for Emax: maximum % stimulation (agonist response) over the tested concentration range, read-out: LNCaP-AR-F876L AG MAX % Stim. Background: A reporter such as luciferase makes a cellular process visible.

A further experiment has as its system rGABA-gated Cl− channel. Description: GABA-Gated Cl Channel Antagonist Radioligand Binding Assay. The conditions noted are these: 10 μM single point, [35S]-TBPS, cerebral cortex membrane homogenates. Further details: species or system rat. In short, it runs like this:
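Rat cerebral cortex membranes (120 μg protein) incubated 120 min at 22° C with 3 nM […] in 50 mM Na2HPO4/KH2PO4 pH 7.4, 500 mM NaCl; nonspecific binding defined with 20 μM picrotoxinin. Bound label counted after filtration; values are percent inhibition of specific binding at 10 μM compound.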

The target in experiment [4] is T2, wild-type Androgen Receptor (AR-wt). Description: LNCaP-AR-wt ANT reporter assay (antagonist mode). Type of experiment: cell-based. The conditions noted are these: for IC50: read-out: LNCaP-AR-wt ANT pIC50 (converted); for Emax: maximum % inhibition of R1881 control response over the tested concentration range, read-out: LNCaP-AR-wt ANT MAX % Inh.
[5] abbreviates: antagonist mode, pIC50 = −Log10(IC50 in Molar).

Structures are written as SMILES. Some results are limits rather than exact numbers.

T2 sequence (P10275 whole entry): as the sequence (P10275 whole entry F877L) above, with L877F counted along it

Regarding `COC(=O)CN1CCC(Oc2ccc(N3C(=S)N(c4cnc(C#N)c(C(F)(F)F)c4)C(=O)C34CCC4)cc2)CC1` [Cpd 33, methyl 2-[4-[4-[6-[6-cyano-5-(trifluoromethyl)-3-pyridyl]-5-oxo-7-thioxo-6,8-diazaspiro[3.4]octan-8-yl]phenoxy]-1-piperidyl]acetate], the IC50 in experiment [1] (setting [5]) is 389 nM; in experiment [4] (setting [5]) it was 708 nM. Besides, the Emax is 98.2% in experiment [1], 0.2% in experiment [2], 2.8% in experiment [3] and 98.9% in experiment [4]. The EC50 in experiment [2] and in experiment [3] was > 15.1 µM in each case. The “rGABA-gated Cl− channel % inh @10 μM” value in the experiment on rGABA-gated Cl− channel was determined as 99.2%.
`CC(C)(C)CCN1CCC(Oc2ccc(N3C(=S)N(c4cnc(C#N)c(C(F)(F)F)c4)C(=O)C34CCC4)cc2)CC1` [Cpd 34, 5-(5-(4-((1-(3,3-dimethylbutyl)piperidin-4-yl)oxy)phenyl)-8-oxo-6-thioxo-5,7-diazaspiro[3.4]octan-7-yl)-3-(trifluoromethyl)picolinonitrile]: the IC50 in experiment [1] (setting [5]) is 1260 nM; in experiment [4] (setting [5]), 3310 nM. The Emax in experiment [1] was 89.7%; in experiment [2] it was -0.4%; in experiment [3] it was 0.2%; in experiment [4] it was 82.7%. The EC50 in experiment [2] and in experiment [3] was > 15.1 µM in each case. In addition, the “rGABA-gated Cl− channel % inh @10 μM” value in the experiment on rGABA-gated Cl− channel was 91.2%.
As to `Cc1cc(N2C(=O)C3(CCC3)N(c3ccc(OC4CCN(C5CC5)CC4)cc3)C2=S)cnc1C#N` [Cpd 35, 5-[8-[4-[(1-cyclopropyl-4-piperidyl)oxy]phenyl]-5-oxo-7-thioxo-6,8-diazaspiro[3.4]octan-6-yl]-3-methyl-pyridine-2-carbonitrile], the IC50 is 372 nM in experiment [1] (setting [5]) and 912 nM in experiment [4] (setting [5]). In addition, the Emax stood at 99.5% in experiment [1], 0.2% in experiment [2], 0.3% in experiment [3] and 100% in experiment [4]. Besides, the EC50 in experiment [2] and in experiment [3] was > 15.1 µM throughout. In addition, in the experiment with rGABA-gated Cl− channel, the “rGABA-gated Cl− channel % inh @10 μM” value came out at 49.9%.
On to `N#Cc1ncc(N2C(=O)C3(CCC3)N(c3ccc(OC4CCN(C5CC5)CC4)cc3)C2=S)cc1C(F)(F)F` [Cpd 36, 5-[8-[4-[(1-cyclopropyl-4-piperidyl)oxy]phenyl]-5-oxo-7-thioxo-6,8-diazaspiro[3.4]octan-6-yl]-3-(trifluoromethyl)pyridine-2-carbonitrile], for which the figures for the IC50 in experiment [1] (setting [5]) and in experiment [4] (setting [5]) were 631 nM and 759 nM, respectively. In addition, the Emax in experiment [1] is 99.1%; in experiment [2], -0.2%; in experiment [3] it was 1%; in experiment [4], 100%. Besides, the EC50 in experiment [2] and in experiment [3] was > 15.1 µM each time. In addition, the “rGABA-gated Cl− channel % inh @10 μM” value with rGABA-gated Cl− channel is 96.2%.
Take `COCCN1CCC(Oc2ccc(N3C(=S)N(c4cnc(C#N)c(C)c4)C(=O)C34CCC4)cc2)CC1` [Cpd 37, 5-[8-[4-[[1-(2-methoxyethyl)-4-piperidyl]oxy]phenyl]-5-oxo-7-thioxo-6,8-diazaspiro[3.4]octan-6-yl]-3-methyl-pyridine-2-carbonitrile]: the figures for the IC50 in experiment [1] (setting [5]) and in experiment [4] (setting [5]) were 407 nM and 1260 nM, respectively. For the same compound, the Emax in experiment [1] was determined as 99.5%; in experiment [2], 0.1%; in experiment [3], 0%; in experiment [4] it was 99.8%. Besides, the EC50 in experiment [2] and in experiment [3] was > 15.1 µM in each case. In addition, the “rGABA-gated Cl− channel % inh @10 μM” value in the experiment on rGABA-gated Cl− channel is listed as 18.8%.
As to `COCCN1CCC(Oc2ccc(N3C(=S)N(c4cnc(C#N)c(C(F)(F)F)c4)C(=O)C34CCC4)cc2)CC1` [Cpd 38, 5-[8-[4-[[1-(2-methoxyethyl)-4-piperidyl]oxy]phenyl]-5-oxo-7-thioxo-6,8-diazaspiro[3.4]octan-6-yl]-3-(trifluoromethyl)pyridine-2-carbonitrile], the results for the IC50 in experiment [1] (setting [5]) and in experiment [4] (setting [5]) were 324 nM and 708 nM, respectively. The Emax came to 99.9% in experiment [1], 0% in experiment [2], 0.3% in experiment [3] and 101% in experiment [4]. For the same compound, the EC50 in experiment [2] and in experiment [3] was > 15.1 µM in each case. For the same compound, in the experiment with rGABA-gated Cl− channel, the “rGABA-gated Cl− channel % inh @10 μM” value is 69.2%.
In the case of `N#CCN1CCC(Oc2ccc(N3C(=S)N(c4cnc(C#N)c(C(F)(F)F)c4)C(=O)C34CCC4)cc2)CC1` [Cpd 39, 5-[8-[4-[[1-(cyanomethyl)-4-piperidyl]oxy]phenyl]-5-oxo-7-thioxo-6,8-diazaspiro[3.4]octan-6-yl]-3-(trifluoromethyl)pyridine-2-carbonitrile], the IC50 in experiment [1] (setting [5]) is 245 nM; in experiment [4] (setting [5]), 676 nM. For the same compound, the Emax in experiment [1] was 101%; in experiment [2], 0.9%; in experiment [3], -0.1%; in experiment [4], 100%. Further, the EC50 in experiment [2] and in experiment [3] was > 15.1 µM throughout. For the same compound, the “rGABA-gated Cl− channel % inh @10 μM” value with rGABA-gated Cl− channel amounted to 86.2%.
`N#Cc1ncc(N2C(=O)C3(CCC3)N(c3ccc(OC4CCN(CC(F)(F)F)CC4)cc3)C2=S)cc1C(F)(F)F` [Cpd 40, 5-[5-oxo-7-thioxo-8-[4-[[1-(2,2,2-trifluoroethyl)-4-piperidyl]oxy]phenyl]-6,8-diazaspiro[3.4]octan-6-yl]-3-(trifluoromethyl)pyridine-2-carbonitrile]: the IC50 in experiment [1] (setting [5]) is 1000 nM; in experiment [4] (setting [5]), 537 nM. The Emax was 96% in experiment [1], 0.2% in experiment [2], 1.5% in experiment [3] and 97.6% in experiment [4]. The EC50 in experiment [2] and in experiment [3] was > 15.1 µM throughout. For the same compound, the “rGABA-gated Cl− channel % inh @10 μM” value in the experiment with rGABA-gated Cl− channel is 67.5%.
`CN1CCC(Oc2ccc(N3C(=S)N(c4cnc(C#N)c(C(F)F)c4)C(=O)C34CCC4)cc2)CC1` [Cpd 41, 3-(difluoromethyl)-5-[8-[4-[(1-methyl-4-piperidyl)oxy]phenyl]-5-oxo-7-thioxo-6,8-diazaspiro[3,4]octan-6-yl]pyridine-2-carbonitrile]: the IC50 in experiment [1] (setting [5]) is 257 nM; in experiment [4] (setting [5]) it was 427 nM. The Emax in experiment [1] was 99.9%; in experiment [2], 0.1%; in experiment [3], 0.1%; in experiment [4] it was 99.3%. Besides, the EC50 in experiment [2] and in experiment [3] was > 15.1 µM in each case. In the experiment with rGABA-gated Cl− channel, the “rGABA-gated Cl− channel % inh @10 μM” value is listed as 20.4%.
Regarding `N#Cc1ncc(N2C(=O)C3(CCC3)N(c3ccc(OC4CCNCC4)cc3)C2=S)cc1Cl` [Cpd 44, 3-chloro-5-[5-oxo-8-[4-(4-piperidyloxy)phenyl]-7-thioxo-6,8-diazaspiro[3.4]octan-6-yl]pyridine-2-carbonitrile], the “LNCaP-AR-F876L ANT pIC50” value in experiment [1] (setting [5]) is recorded as 7.43. Besides, the Emax in experiment [1] stood at 101%; in experiment [2], 0.7%; in experiment [3], 0.1%; in experiment [4], 98.8%. Moreover, the EC50 in experiment [2] and in experiment [3] was > 15.1 µM throughout. In addition, the “rGABA-gated Cl− channel % inh @10 μM” value in the experiment on rGABA-gated Cl− channel is given as −0.5%. Further, the “LNCaP-AR-wt ANT pIC50” value in experiment [4] (setting [5]) came to 7.12.
